Laboratory results reported in patent US11932885B2, “Use of glutamine synthetase for treating hyperammonemia” (Thoeris GmbH, priority 2017, dated 2024).

Legend:
BDL rats [1] = assay: RotaRod-Accelerod test in BDL rats; type: in vivo
Experimental: (§1) All experiments were performed in accordance with the Animals (Scientific Procedures) Act of 1986, which was revised according to the European Directive2010/63/EU. All animals received humane care according to the criteria outlined in the Guide for the Care and Use of Laboratory Animals (National Institutes of Health publication 86-23; revised 1985). All the animals used in these experiments were Male Sprague-Dawley rats (body weight, 250 g at the beginning of the experiments) were obtained from Charles River Laboratories (Kent, UK) and divided into 5 groups: bile duct ligated animals+ammonia+saline serum (BDL+HA+SS, n=6), bile duct ligated animals+ammonia+sodium phenylacetate (BDL+HA+SP, n=6), bile duct ligated animals+ammonia+sodium phenylacetate+glutamine synthetase (BDL+HA+SP+GS, n=5), bile duct ligated animals+ammonia+glutamine synthetase (BDL+HA+GS, n=6), sham-operated animals+glutamine synthetase (SHAM+GS, n=5). Treatment comprising SP and GS may be referred to as “COMBO”.
This test of motor performance consists of a motor-driven rotating rod that enables us to assess motor coordination and resistance to fatigue (Jones and Roberts 1968). […] Latency to fall off the rod and the actual rotation speed were recorded in the pre- and post-treatment conditions for all groups after 1 hour treatment.

BDL rats [2] = assay: Brain oedema in the prefrontal cortex of BDL rats (dry weight technique); type: in vivo; details: versus control without treatment
Experimental: as §1
This was measured using the dry weight technique as described previously. […] The dry weight was determined after Eppendorf's loaded with individual brain samples were dried in an oven at 60° C. for 7 days. Tissue water content was then calculated as % H2O=(1-dry wt/wet wt)×100%.

BDL rats [3] = assay: Ammonia blood levels in BDL rats; type: in vivo; details: BDL rats on hyperammonemic diet
Experimental: All experiments were performed in accordance with the Animals (Scientific Procedures) Act of 1986, which was revised according to the European Directive2010/63/EU. All animals received humane care according to the criteria outlined in the Guide for the Care and Use of Laboratory Animals (National Institutes of Health publication 86-23; revised 1985). All the animals used in these experiments were Male Sprague-Dawley rats (body weight, 250 g at the beginning of the experiments) were obtained from Charles River Laboratories (Kent, UK) and divided into 5 groups: bile duct ligated animals+ammonia+saline serum (BDL+HA+SS, n=6), bile duct ligated animals+ammonia+sodium phenylacetate (BDL+HA+SP, n=6), bile duct ligated animals+ammonia+sodium phenylacetate+glutamine synthetase (BDL+HA+SP+GS, n=5), bile duct ligated animals+ammonia+glutamine synthetase (BDL+HA+GS, n=6), sham-operated animals+glutamine synthetase (SHAM+GS, n=5). Treatment comprising SP and GS may be referred to as “COMBO”. […]
Plasma samples were collected from the leg vein at different timepoints in all groups. The timepoints were counted after the treatment with glutamine synthetase as follows: 6 hours, 24 hours, 48 hours and 5 days. […]

[4] = mouse, in vivo, sc, 2.5 mg/kg
Experimental: The ELISA was conducted according to the protocol outlined by the manufacturer (Abcam PEG ELISA kit, ab133065). […] N=2 animals in each group.

| Compound | rotarod grip test performance (BDL rats [1]) | brain oedema in the prefrontal cortex (BDL rats [2]) | ammonia levels in the blood (BDL rats [3]) | plasma level (PEG ELISA) [4] |
| --- | --- | --- | --- | --- |
| O=C([O-])Cc1ccccc1.[Na+] [SP, sodium phenylacetate] | did not lead to stastically significant effects | did not statistically significantly reduce the swelling | significant reduction of ammonia levels in the blood |  |
| wt GS: Non-conjugated human glutamine synthetase with N-terminal His-tag and GGGGS linker (SEQ ID NO: 4), expressed in E. coli |  |  |  | very low or undetectable levels |
